Measured values reported in patent US20090221829A1 (priority 2005, published 2009).

Assays:
[1] = target: sterol-24-methyl transferase (Candida albicans, UniProt O74198); assay type: biochemical; conditions: in vitro, read-out: Relative Activity (IC50 class)
From the text: Moreover, the relative activity for sterol-24-methyl transferase of the above compound in Table 11 is described in Table 13.

[2] = system: Candida albicans(KCTC 1940), Aspergillus niger (ATCC 9642) and Saccharomyces cerevisiae; assay: Relative antifungal activity by agar dilution method (vs Miconazole); assay type: cell-based;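 note: scores 5 to 7 mean a lower fungicidal concentration than Miconazole so higher is more potent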
From the text: Novel compounds represented by the above chemical formula (I), and the relative activities in accordance with the agar dilution method in Sabouraud dextrose agar media, Czapek agar media and Yeast Extract-Peptone-Dextrose agar media for Candida albicans(KCTC 1940), Aspergillus niger (ATCC 9642) and Saccharomyces cerevisiae are described respectively in following Table 1.

various kinds of Candida = assay: MIC (Minimal Inhibitory Concentration) data; assay type: cell-based; conditions: unit assumed

Sequence of sterol-24-methyl transferase (O74198 whole entry): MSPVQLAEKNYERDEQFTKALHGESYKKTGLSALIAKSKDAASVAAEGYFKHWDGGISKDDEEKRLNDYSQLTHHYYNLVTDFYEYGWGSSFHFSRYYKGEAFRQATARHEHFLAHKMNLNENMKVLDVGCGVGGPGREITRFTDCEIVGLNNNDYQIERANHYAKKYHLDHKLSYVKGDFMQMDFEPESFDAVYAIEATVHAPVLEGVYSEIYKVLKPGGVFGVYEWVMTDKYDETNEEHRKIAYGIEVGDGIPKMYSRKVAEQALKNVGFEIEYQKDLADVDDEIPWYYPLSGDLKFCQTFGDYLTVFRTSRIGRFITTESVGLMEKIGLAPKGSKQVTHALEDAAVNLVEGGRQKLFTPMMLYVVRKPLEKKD

CCCCCCCCCCCC1=[N+](Cc2ccc(N)cc2)CCc2cc(OC)c(OC)cc21.Cl.[Cl-] [Compound No. 121, 3,4-dihydro-6,7-dimethoxy-2-(4-ammoniumphenyl)methyl-1-undecylisoquinolinium dichloride]
IC50 [1]: 5 to 50 µM
Relative Activity ([2]; agar dilution method, fungicidal concentration relative to control drug Miconazole (=4)): 2
MIC (various kinds of Candida; C. albicans ATCC 11651): 3.12 µg/mL
MIC (various kinds of Candida; C. albicans ATCC 28838): 0.78 µg/mL
MIC (various kinds of Candida; C. albicans IFO 1385): 1.56 µg/mL
MIC (various kinds of Candida; C. albicans OY-003): 3.12 µg/mL
MIC (various kinds of Candida; C. albicans OY-019): 3.12 µg/mL
MIC (various kinds of Candida; C. albicans U.K): 3.12 µg/mL
MIC (various kinds of Candida; C. glabrata): 1.56 µg/mL
MIC (various kinds of Candida; C. glulliermondi): 0.78 µg/mL
MIC (various kinds of Candida; C. krusei (KCTC7273)): 1.56 µg/mL
MIC (various kinds of Candida; C. parapsilosis): 1.56 µg/mL

COc1cc2cc[n+](Cc3cccc(OC)c3OCc3c(F)c(F)c(C(F)(F)F)c(F)c3F)c(CCc3ccc(C(C)(C)C)cc3)c2cc1OC.[Cl-] [Compound No. 151, 1-(2-(4-t-butylphenyl))ethyl-2-(2-(2,3,5,6-tetrafluoro-4-trifluoromethylbenzyloxy)-3-methoxyphenyl)methyl-6,7-dimethoxyisoquinolinium chloride]
IC50 [1]: < 5 µM
Relative Activity ([2]; antifungal activity relative to Miconazole, agar dilution): 1
MIC (various kinds of Candida; C. albicans ATCC 11651): 3.12 µg/mL
MIC (various kinds of Candida; C. albicans ATCC 28838): 3.12 µg/mL
MIC (various kinds of Candida; C. albicans IFO 1385): 6.25 µg/mL
MIC (various kinds of Candida; C. albicans OY-003): 1.56 µg/mL
MIC (various kinds of Candida; C. albicans OY-019): 3.12 µg/mL
MIC (various kinds of Candida; C. albicans U.K): 1.56 µg/mL
MIC (various kinds of Candida; C. glabrata): 3.25 µg/mL
MIC (various kinds of Candida; C. glulliermondi): 1.56 µg/mL
MIC (various kinds of Candida; C. krusei (KCTC7273)): 1.56 µg/mL
MIC (various kinds of Candida; C. parapsilosis): 12.5 µg/mL
